Measurements reported in paper PMC7525662, “Preclinical dosimetry models and the prediction of clinical doses of novel positron emission tomography radiotracers” (Scientific Reports, 2020).
Marks after values point to notes of the source that are not given here.

Legend:
Parameters in all cases: species or system Sprague–Dawley rats
[1] = Residence times in rat source organs from whole-body PET, FBP reconstruction; settings: in vivo, iv
Description: (§1) Immediately after radiotracer administration, a 240 min emission scan using 4 beds (50% overlap) was obtained using 3-dimensional 1:5 mode and re-binned as follows: 7 × 1 min, 2 × 5 min and 4 × 10 min. Throughout the PET/CT scanning session, animal temperature and respiration rate were monitored and controlled. PET studies were reconstructed using filtered-back projection (FBP) and Mediso’s iterative Tera-Tomo 3D reconstruction algorithm with the following settings: 4 iterations, 6 subsets, full detector model, normal regularization, spike filter on, voxel size 0.4 mm and 400‒600 keV energy window. PET data were corrected for randoms, scatter and attenuation. […] Then, PMOD’s contours interpolation tool was used to interpolate ROIs for each organ into a corresponding volume-of-interest (VOI). A static cuboidal VOI was also drawn to include the animal whole-body. Time-activity curves for each source organ, whole-body and remainder of the body were plotted. […] Residence times (τ) were determined for each radiotracer in source organs, whole-body and remaining (any activity assigned to the whole-body but not assigned to a source organ). Each preclinical source organ’s τ was determined by calculating the area under its respective time-activity curve (activity normalised to the percentage maximum injected dose as a function of time) using the trapezoid method. […] From each individual animal, eight dosimetry models were constructed from all possible combinations of image reconstruction method (FBP or iterative), τ (non-normalised or normalised to human organ masses), and sex of phantom (male or female).

[2] = OLINDA/EXM predicted clinical doses: adult female phantom, normalised τ, iterative; settings: rat, in vivo
Description: (§2) PET studies were reconstructed using filtered-back projection (FBP) and Mediso’s iterative Tera-Tomo 3D reconstruction algorithm with the following settings: 4 iterations, 6 subsets, full detector model, normal regularization, spike filter on, voxel size 0.4 mm and 400‒600 keV energy window. PET data were corrected for randoms, scatter and attenuation. Time-activity curves for each source organ, whole-body and remainder of the body were plotted. […] Residence times (τ) were determined for each radiotracer in source organs, whole-body and remaining (any activity assigned to the whole-body but not assigned to a source organ). Each preclinical source organ’s τ was determined by calculating the area under its respective time-activity curve (activity normalised to the percentage maximum injected dose as a function of time) using the trapezoid method. […] From each individual animal, eight dosimetry models were constructed from all possible combinations of image reconstruction method (FBP or iterative), τ (non-normalised or normalised to human organ masses), and sex of phantom (male or female). Supplementary table 12. Predicted clinical absorbed organ doses and whole-body effective doses of PET radiotracers using normalised adult female source organ residence times from iterative reconstructions.

[3] = Residence times in rat source organs from whole-body PET, iterative reconstruction; settings: in vivo, iv
Description: as §1

[4] = OLINDA/EXM predicted clinical doses: adult male phantom, non-normalised τ, iterative; settings: rat, in vivo
Description: as §2, with “female).” for “female). Supplementary table 12. Predicted clinical absorbed organ doses and whole-body effective doses of PET radiotracers using normalised adult female source organ residence times from iterative reconstructions.”

[5] = OLINDA/EXM predicted clinical doses: adult male phantom, normalised τ, FBP; settings: rat, in vivo
Description: as §2, with “female).” for “female). Supplementary table 12. Predicted clinical absorbed organ doses and whole-body effective doses of PET radiotracers using normalised adult female source organ residence times from iterative reconstructions.”

O=C[C@H]([18F])[C@@H](O)[C@H](O)[C@H](O)CO [FDG, 2-deoxy-2-[^18F]fluoro-D-glucose]
Residence Time (h), Average: Brain [1]: 0.0124 h | Residence Time (h), Average: Heart [1]: 0.0158 h | Residence Time (h), Average: Intestine [1]: 0.372 h | Residence Time (h), Average: Kidneys [1]: 0.0215 h | Residence Time (h), Average: Liver [1]: 0.0249 h | Residence Time (h), Average: Lungs [1]: 0.0155 h | Residence Time (h), Average: Remaining [1]: 2.1 h | Residence Time (h), Average: Urinary Bladder [1]: 0.65 h | Effective Dose [2]: 1.15E-02 mSv/MBq | Estimated Absorbed Dose of Organ, Brain [2]: 1.19E-02 mGy/MBq | Estimated Absorbed Dose of Organ, Breasts [2]: 1.84E-02 mGy/MBq | Estimated Absorbed Dose of Organ, Gallbladder Wall [2]: 8.62E-03 mGy/MBq | Estimated Absorbed Dose of Organ, Heart Wall [2]: 1.28E-02 mGy/MBq | Estimated Absorbed Dose of Organ, Kidneys [2]: 9.59E-02 ‡ mGy/MBq | Estimated Absorbed Dose of Organ, LLI Wall [2]: 1.11E-02 mGy/MBq | Estimated Absorbed Dose of Organ, Liver [2]: 2.72E-02 mGy/MBq | Estimated Absorbed Dose of Organ, Lungs [2]: 1.15E-02 mGy/MBq | Estimated Absorbed Dose of Organ, Muscle [2]: 1.79E-02 mGy/MBq | Estimated Absorbed Dose of Organ, Osteogenic Cells [2]: 1.02E-02 mGy/MBq | Estimated Absorbed Dose of Organ, Ovaries [2]: 1.03E-02 mGy/MBq | Estimated Absorbed Dose of Organ, Pancreas [2]: 1.95E-02 mGy/MBq | Estimated Absorbed Dose of Organ, Red Marrow [2]: 1.23E-02 mGy/MBq | Estimated Absorbed Dose of Organ, Skin [2]: 1.51E-02 mGy/MBq | Estimated Absorbed Dose of Organ, Small Intestine [2]: 8.33E-02 § mGy/MBq | Estimated Absorbed Dose of Organ, Spleen [2]: 7.40E-03 mGy/MBq | Estimated Absorbed Dose of Organ, Stomach Wall [2]: 1.38E-02 mGy/MBq | Estimated Absorbed Dose of Organ, Thymus [2]: 1.10E-02 mGy/MBq | Estimated Absorbed Dose of Organ, Thyroid [2]: 1.16E-02 mGy/MBq | Estimated Absorbed Dose of Organ, ULI Wall [2]: 1.15E-02 mGy/MBq | Estimated Absorbed Dose of Organ, Urinary Bladder Wall [2]: 8.48E-03 mGy/MBq | Estimated Absorbed Dose of Organ, Uterus [2]: 1.93E-01 † mGy/MBq | Estimated Absorbed Dose, Total Body [2]: 2.12E-02 mGy/MBq | Residence Time (h), Average: Brain [3]: 0.0254 h | Residence Time (h), Average: Heart [3]: 0.0387 h | Residence Time (h), Average: Intestine [3]: 0.287 h | Residence Time (h), Average: Kidneys [3]: 0.0499 h | Residence Time (h), Average: Liver [3]: 0.0417 h | Residence Time (h), Average: Lungs [3]: 0.0166 h | Residence Time (h), Average: Remaining [3]: 1.35 h | Residence Time (h), Average: Urinary Bladder [3]: 1.15 h | Effective Dose (mSv/MBq), Average ± SD [4]: 6.24E-02 mSv/MBq | Estimated Absorbed Dose of Organ, Average ± SD: Adrenals [4]: 9.39E-03 mGy/MBq | Estimated Absorbed Dose of Organ, Average ± SD: Brain [4]: 5.73E-03 mGy/MBq | Estimated Absorbed Dose of Organ, Average ± SD: Breasts [4]: 5.93E-03 mGy/MBq | Estimated Absorbed Dose of Organ, Average ± SD: Gallbladder Wall [4]: 1.04E-02 mGy/MBq | Estimated Absorbed Dose of Organ, Average ± SD: Heart Wall [4]: 2.60E-02 mGy/MBq | Estimated Absorbed Dose of Organ, Average ± SD: Kidneys [4]: 3.58E-02 § mGy/MBq | Estimated Absorbed Dose of Organ, Average ± SD: LLI Wall [4]: 1.92E-01 ‡ mGy/MBq | Estimated Absorbed Dose of Organ, Average ± SD: Liver [4]: 9.19E-03 mGy/MBq | Estimated Absorbed Dose of Organ, Average ± SD: Lungs [4]: 6.86E-03 mGy/MBq | Estimated Absorbed Dose of Organ, Average ± SD: Muscle [4]: 1.15E-02 mGy/MBq | Estimated Absorbed Dose of Organ, Average ± SD: Osteogenic Cells [4]: 1.26E-02 mGy/MBq | Estimated Absorbed Dose of Organ, Average ± SD: Pancreas [4]: 9.88E-03 mGy/MBq | Estimated Absorbed Dose of Organ, Average ± SD: Red Marrow [4]: 1.08E-02 mGy/MBq | Estimated Absorbed Dose of Organ, Average ± SD: Skin [4]: 6.97E-03 mGy/MBq | Estimated Absorbed Dose of Organ, Average ± SD: Small Intestine [4]: 1.91E-02 mGy/MBq | Estimated Absorbed Dose of Organ, Average ± SD: Spleen [4]: 9.14E-03 mGy/MBq | Estimated Absorbed Dose of Organ, Average ± SD: Stomach Wall [4]: 9.73E-03 mGy/MBq | Estimated Absorbed Dose of Organ, Average ± SD: Testes [4]: 1.82E-02 mGy/MBq | Estimated Absorbed Dose of Organ, Average ± SD: Thymus [4]: 7.56E-03 mGy/MBq | Estimated Absorbed Dose of Organ, Average ± SD: Thyroid [4]: 6.91E-03 mGy/MBq | Estimated Absorbed Dose of Organ, Average ± SD: Total Body [4]: 1.19E-02 mGy/MBq | Estimated Absorbed Dose of Organ, Average ± SD: ULI Wall [4]: 1.49E-02 mGy/MBq | Estimated Absorbed Dose of Organ, Average ± SD: Urinary Bladder Wall [4]: 5.53E-01 † mGy/MBq | Effective Dose (mSv/MBq), Average ± SD [5]: 2.62E-02 mSv/MBq | Estimated Absorbed Dose of Organ, Average: Adrenals [5]: 1.23E-02 mGy/MBq | Estimated Absorbed Dose of Organ, Average: Brain [5]: 8.73E-03 mGy/MBq | Estimated Absorbed Dose of Organ, Average: Breasts [5]: 9.14E-03 mGy/MBq | Estimated Absorbed Dose of Organ, Average: Gallbladder Wall [5]: 1.25E-02 mGy/MBq | Estimated Absorbed Dose of Organ, Average: Heart Wall [5]: 3.82E-02 mGy/MBq | Estimated Absorbed Dose of Organ, Average: Kidneys [5]: 1.43E-02 § mGy/MBq | Estimated Absorbed Dose of Organ, Average: Liver [5]: 7.98E-03 mGy/MBq | Estimated Absorbed Dose of Organ, Average: Lungs [5]: 1.48E-02 mGy/MBq | Estimated Absorbed Dose of Organ, Average: Muscle [5]: 1.13E-02 mGy/MBq | Estimated Absorbed Dose of Organ, Average: Osteogenic Cells [5]: 1.67E-02 mGy/MBq | Estimated Absorbed Dose of Organ, Average: Pancreas [5]: 1.31E-02 mGy/MBq | Estimated Absorbed Dose of Organ, Average: Red Marrow [5]: 1.11E-02 mGy/MBq | Estimated Absorbed Dose of Organ, Average: Skin [5]: 8.54E-03 mGy/MBq | Estimated Absorbed Dose of Organ, Average: Small Intestine [5]: 1.55E-02 mGy/MBq | Estimated Absorbed Dose of Organ, Average: Spleen [5]: 1.20E-02 mGy/MBq | Estimated Absorbed Dose of Organ, Average: Stomach Wall [5]: 1.26E-02 mGy/MBq | Estimated Absorbed Dose of Organ, Average: Testes [5]: 1.22E-02 mGy/MBq | Estimated Absorbed Dose of Organ, Average: Thymus [5]: 1.17E-02 mGy/MBq | Estimated Absorbed Dose of Organ, Average: Thyroid [5]: 1.09E-02 ± 1.11E-03 mGy/MBq | Estimated Absorbed Dose of Organ, Average: Total Body [5]: 1.17E-02 mGy/MBq | Estimated Absorbed Dose of Organ, Average: ULI Wall [5]: 1.39E-02 mGy/MBq | Estimated Absorbed Dose of Organ, Average: Urinary Bladder Wall [5]: 8.88E-02 ‡ mGy/MBq
